Laboratory results from PubChem BioAssay (NCI).
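Following 48 hours of exposure in 96-well plates, responses at five concentrations were used to interpolate endpoints linearly. Definition used: TGI = concentration required for complete inhibition of growth.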

What was measured:
Experiment in all cases: NCI-60 cell line screen, 48 h
[1] = test system: NCI-H522 lung
[2] = test system: OVCAR-4 ovarian
[3] = test system: NCI-H226 lung
[4] = test system: SF-268 CNS
[5] = test system: SK-MEL-28 melanoma
[6] = test system: MCF7 breast
[7] = test system: UACC-62 melanoma
[8] = test system: TK-10 renal
[9] = test system: MOLT-4 leukemia
[10] = test system: SR leukemia
[11] = test system: HS 578T breast
[12] = test system: NCI-H23 lung
[13] = test system: ACHN renal
[14] = test system: HT29 colon
[15] = test system: HCC-2998 colon
[16] = test system: PC-3 prostate
[17] = test system: MDA-MB-435
[18] = test system: COLO 205 colon
[19] = test system: IGROV1 ovarian
[20] = test system: T-47D breast
[21] = test system: SK-MEL-5 melanoma
[22] = test system: HCT-15 colon
[23] = test system: M14 melanoma
[24] = test system: OVCAR-3 ovarian
[25] = test system: HOP-92 NSCLC
[26] = test system: LOX IMVI melanoma
[27] = test system: SNB-75 CNS
[28] = test system: 786-0 renal
[29] = test system: UO-31 renal
[30] = test system: BT-549 breast
[31] = test system: A498 renal
[32] = test system: RPMI-8226 leukemia
[33] = test system: HOP-62 NSCLC
[34] = test system: OVCAR-5 ovarian
[35] = test system: EKVX NSCLC
[36] = test system: A549 NSCLC
[37] = test system: RXF 393 renal
[38] = test system: SK-OV-3 ovarian
[39] = test system: MDA-MB-231 breast
[40] = test system: SF-295 CNS
[41] = test system: SK-MEL-2 melanoma
[42] = test system: KM12 colon
[43] = test system: CAKI-1 renal
[44] = test system: U251 CNS
[45] = test system: UACC-257 melanoma
[46] = test system: SF-539 CNS
[47] = test system: K-562 leukemia
[48] = test system: SN12C renal
[49] = test system: CCRF-CEM leukemia
[50] = test system: NCI/ADR-RES ovarian
[51] = test system: OVCAR-8 ovarian
[52] = test system: HCT-116 colon
[53] = test system: SNB-19 CNS
[54] = test system: SW-620 colon
[55] = test system: DU-145 prostate

CN(C)CCNc1ccc(NCCN(C)C)c2c1C(=O)c1ncsc1C2=O
TGI [1]: 31.7 µM | TGI [2]: 25.1 µM | TGI [3]: 17.7 µM | TGI [4]: 39.3 µM | TGI [5]: 33.7 µM | TGI [6]: 21.3 µM | TGI [7]: 24.6 µM | TGI [8]: 58.2 µM | TGI [9]: 5.57 µM | TGI [10]: 4.39 µM | TGI [11]: 50.3 µM | TGI [12]: 30 µM | TGI [13]: 22.7 µM | TGI [14]: 19.7 µM | TGI [15]: 31.3 µM | TGI [16]: 38.1 µM | TGI [17]: 27.8 µM | TGI [18]: 31.1 µM | TGI [19]: 28.1 µM | TGI [20]: > 100 µM | TGI [21]: 31.6 µM | TGI [22]: 27.6 µM | TGI [23]: 36.6 µM | TGI [24]: 37.2 µM | TGI [25]: 29.9 µM | TGI [26]: 29.5 µM | TGI [27]: 33 µM | TGI [28]: 24 µM | TGI [29]: 32.2 µM | TGI [30]: 35.1 µM | TGI [31]: 28.1 µM | TGI [32]: 29.4 µM | TGI [33]: 43.6 µM | TGI [34]: 55.3 µM | TGI [35]: 26.4 µM | TGI [36]: 31.3 µM | TGI [37]: 41 µM | TGI [38]: 38.8 µM | TGI [39]: 32.2 µM | TGI [40]: 26.6 µM | TGI [41]: 42.7 µM | TGI [42]: 25.2 µM | TGI [43]: 57.5 µM | TGI [44]: 29.7 µM | TGI [45]: 34.7 µM | TGI [46]: 28.1 µM | TGI [47]: 34.3 µM | TGI [48]: 25.7 µM | TGI [49]: 10.9 µM | TGI [50]: > 100 µM | TGI [51]: 27.8 µM | TGI [52]: 22.7 µM | TGI [53]: 51 µM | TGI [54]: 29.7 µM | TGI [55]: 25.9 µM
